Measurements from patent US11951094B2, “TLR2 modulator compounds, pharmaceutical compositions and uses thereof” (Axial Therapeutics, Inc., priority 2020, dated 2024).
Structures can show the parent of a compound that is named as a salt.

Molecular target: TLR2 (Homo sapiens, UniProt O60603)
Assay: TLR2 agonist screening assay, HEK-Blue TLR2 reporter cell line (NF-kB-driven SEAP, absorbance at 600 nm)
Assay type: cell-based
Design: host or cells: HEK-293 (HEK-Blue TLR2 reporter cell line)
Conditions: HEK-Blue TLR2 reporter cells, agonist mode
Summary of the method: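 TLR2 engagement is scored through NF-kB-induced secreted alkaline phosphatase in HEK-293 cells, detected by substrate colour change at 600 nm after overnight compound treatment at 1% final DMSO. Potency is expressed as EC50.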

TLR2, sequence (O60603 21-784): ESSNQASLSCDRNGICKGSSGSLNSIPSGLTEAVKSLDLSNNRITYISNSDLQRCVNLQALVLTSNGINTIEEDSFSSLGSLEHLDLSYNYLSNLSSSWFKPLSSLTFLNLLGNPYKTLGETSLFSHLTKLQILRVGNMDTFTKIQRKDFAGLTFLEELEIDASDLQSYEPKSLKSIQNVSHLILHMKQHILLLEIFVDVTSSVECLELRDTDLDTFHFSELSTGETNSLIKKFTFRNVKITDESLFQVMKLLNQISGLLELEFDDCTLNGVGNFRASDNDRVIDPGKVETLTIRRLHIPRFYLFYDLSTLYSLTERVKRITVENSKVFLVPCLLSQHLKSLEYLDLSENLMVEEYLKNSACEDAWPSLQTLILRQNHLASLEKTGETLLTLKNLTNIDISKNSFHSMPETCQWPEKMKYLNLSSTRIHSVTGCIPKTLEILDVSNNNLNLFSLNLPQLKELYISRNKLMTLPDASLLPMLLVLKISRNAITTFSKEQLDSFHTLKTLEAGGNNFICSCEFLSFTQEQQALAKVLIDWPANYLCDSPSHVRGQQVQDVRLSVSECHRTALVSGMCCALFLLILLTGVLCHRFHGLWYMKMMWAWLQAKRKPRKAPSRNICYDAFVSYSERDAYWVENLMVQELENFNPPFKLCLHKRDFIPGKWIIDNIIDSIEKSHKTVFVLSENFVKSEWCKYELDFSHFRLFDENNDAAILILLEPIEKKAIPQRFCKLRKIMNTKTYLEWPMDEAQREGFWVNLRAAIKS

| SMILES | EC50 (average of all runs (Table 4)) [nM] | EC50 (average of all runs (Table 3)) [nM] |
| --- | --- | --- |
| CCCCCCCO[C@H]1CN(C(=O)c2ccc(C(=O)N3C[C@@H](C(=O)N[C@H]4C[C@@H]4c4ccccc4)[C@H](C(=O)N[C@H]4C[C@@H]4c4ccccc4)C3)cc2)C[C@@H]1NC(=O)NCCCCC [Compound 156, (3S,4S)-1-(4-((3S,4S)-3-(heptyloxy)-4-(3-pentylureido)pyrrolidine-1-carbonyl)benzoyl)-N3,N4-bis((1S,2R)-2-phenylcyclopropyl)pyrrolidine-3,4-dicarboxamide] | 51 to 350 | – |
| CCCCCCCC(=O)N1CCCN(S(=O)(=O)c2cccc(C(=O)N3C[C@@H](C(=O)N[C@H]4C[C@@H]4c4ccccc4)[C@H](C(=O)N[C@H]4C[C@@H]4c4ccccc4)C3)c2)C[C@@H]1C(=O)NCCCCCC (single isomer, unassigned) [Compound 201] | 351 to 1000 | – |
| CCCCCCCCC(=O)N1CCN(C(=O)c2ccc(C(=O)N3C[C@@H](C(=O)N[C@H]4C[C@@H]4c4ccccc4)[C@H](C(=O)N[C@H]4C[C@@H]4c4ccccc4)C3)cc2)CC1C(=O)NCCCCCC (stereo partly drawn) [Compound 051, (3S,4S)-1-(4-(3-(hexylcarbamoyl)-4-nonanoylpiperazine-1-carbonyl)benzoyl)-N3,N4-bis((1S,2R)-2-phenylcyclopropyl)pyrrolidine-3,4-dicarboxamide] | – | 0.1 to 50 |
| CCCCCCNC(=O)[C@H]1CN(C(c2ccc(C(=O)N3C[C@@H](C(=O)N[C@H]4C[C@@H]4c4ccccc4)[C@H](C(=O)N[C@H]4C[C@@H]4c4ccccc4)C3)cc2)C(F)(F)F)CCN1C(=O)CCCCCC (stereo partly drawn) [Compound 158, (3S,4S)—N3,N4-bis((1S,2R)-2-phenylcyclopropyl)-1-(4-(2,2,2-trifluoro-1-((R)-4-heptanoyl-3-(hexylcarbamoyl)piperazin-1-yl)ethyl)benzoyl)pyrrolidine-3,4-dicarboxamide] | > 1000 | – |
| CCCCCCNC(=O)CC[C@H](NC(=O)c1ccc(C(=O)N2C[C@@H](C(=O)N[C@H]3C[C@@H]3c3ccccc3)[C@H](C(=O)N[C@H]3C[C@@H]3c3ccccc3)C2)cc1)C(=O)NCCCCCC [Compound 013] | – | > 1000 |
| CCCCCCCC[C@H]1CN(C(=O)c2ccc(C(=O)N3C[C@@H](C(=O)N[C@H]4C[C@@H]4c4ccccc4)[C@H](C(=O)N[C@H]4C[C@@H]4c4ccccc4)C3)cc2)C[C@H]1C(=O)NCCCCCC (relative stereo) [Compound 086, (3S,4S)-1-(4-((3S*,4R*)-3-(hexylcarbamoyl)-4-octylpyrrolidine-1-carbonyl)benzoyl)-N3,N4-bis((1S,2R)-2-phenylcyclopropyl)pyrrolidine-3,4-dicarboxamide] | > 1000 | – |
| CCCCCCCCCCCCCCNC(=O)C1COC(=O)N(Cc2ccc(C(=O)N3C[C@@H](C(=O)N[C@H]4C[C@@H]4c4ccccc4)[C@H](C(=O)N[C@H]4C[C@@H]4c4ccccc4)C3)cc2)C1 (some centres unmarked) [Compound 179] | > 1000 | – |
| CCCCCCCC(=O)N1CCCN(C(=O)c2ccc(C(=O)N3C[C@@H](C(=O)N[C@H]4C[C@@H]4c4ccccc4)[C@H](C(=O)N[C@H]4C[C@@H]4c4ccccc4)C3)cc2)C[C@H]1C(=O)NCCCCCC (single isomer, unassigned) [Compound 145] | > 1000 | – |
| CCCCCCCC(=O)N1CCCN(C(=O)c2cccc(C(=O)N3C[C@@H](C(=O)N[C@H]4C[C@@H]4c4ccccc4)[C@H](C(=O)N[C@H]4C[C@@H]4c4ccccc4)C3)c2)C[C@H]1C(=O)NCCCCCC (single isomer, unassigned) [Compound 190] | 351 to 1000 | – |
| CCCCCCCCCCCCNC(=O)N[C@H]1CN(C(c2ccc(C(=O)N3C[C@@H](C(=O)N[C@H]4C[C@@H]4c4ccccc4)[C@H](C(=O)N[C@H]4C[C@@H]4c4ccccc4)C3)cc2)C(F)(F)F)C[C@@H]1OC (single isomer, unassigned) [Compound 232, (3S,4S)-1-(4-((R*)-1-((3S,4S)-3-(3-dodecylureido)-4-methoxypyrrolidin-1-yl)-2,2,2-trifluoroethyl)benzoyl)-N3,N4-bis((1S,2R)-2-phenylcyclopropyl)pyrrolidine-3,4-dicarboxamide] | 0.1 to 50 | – |

Now from value to compound:

| EC50 (average of all runs (Table 4)) [nM] | EC50 (average of all runs (Table 3)) [nM] | SMILES |
| --- | --- | --- |
| > 1000 | – | CCCCCCCCCCCCCCCN1C[C@@H](NC(=O)c2ccc(C(=O)N3C[C@@H](C(=O)N[C@H]4C[C@@H]4c4ccccc4)[C@H](C(=O)N[C@H]4C[C@@H]4c4ccccc4)C3)cc2)CCC1=O [Compound 180, (3S,4S)-1-(4-(((S)-6-oxo-1-pentadecylpiperidin-3-yl)carbamoyl)benzoyl)-N3,N4-bis((1S,2R)-2-phenylcyclopropyl)pyrrolidine-3,4-dicarboxamide] |
| – | 351 to 1000 | CCCCCCCCCCCCCCNC(=O)[C@@H]1CN(C(=O)c2ccc(C(=O)N3C[C@@H](C(=O)N[C@H]4C[C@@H]4c4ccccc4)[C@H](C(=O)N[C@H]4C[C@@H]4c4ccccc4)C3)cc2)CCN1C [Compound 069, (3S,4S)-1-(4-((S)-4-methyl-3-(tetradecylcarbamoyl)piperazine-1-carbonyl)benzoyl)-N3,N4-bis ((1S,2R)-2-phenylcyclopropyl) pyrrolidine-3,4-dicarboxamide formate] |
| > 1000 | – | CCCCCCCCCCCCCCC(=O)NC1CCN(C(=O)c2cccc(C(=O)N3C[C@@H](C(=O)N[C@H]4C[C@@H]4c4ccccc4)[C@H](C(=O)N[C@H]4C[C@@H]4c4ccccc4)C3)c2)CC1 [Compound 166, (3S,4S)-1-(3-(4-pentadecanamidopiperidine-1-carbonyl)benzoyl)-N3,N4-bis((1S,2R)-2-phenylcyclopropyl)pyrrolidine-3,4-dicarboxamide] |
| > 1000 | – | CCCCCCCO[C@@H]1CN(C(=O)c2ccc(C(=O)N3C[C@@H](C(=O)N[C@H]4C[C@@H]4c4ccccc4)[C@H](C(=O)N[C@H]4C[C@@H]4c4ccccc4)C3)cc2)C[C@H]1NC(=O)CCCCCC [Compound 155, (3S,4S)-1-(4-((3R,4R)-3-heptanamido-4-(heptyloxy)pyrrolidine-1-carbonyl)benzoyl)-N3,N4-bis((1S,2R)-2-phenylcyclopropyl)pyrrolidine-3,4-dicarboxamide] |
| > 1000 | – | CCCCCCCCCCCCCCCN1C[C@H](NC(=O)c2ccc(C(=O)N3C[C@@H](C(=O)N[C@H]4C[C@@H]4c4ccccc4)[C@H](C(=O)N[C@H]4C[C@@H]4c4ccccc4)C3)cc2)CCC1=O [Compound 169, (3S,4S)-1-(4-(((R)-6-oxo-1-pentadecylpiperidin-3-yl)carbamoyl)benzoyl)-N3,N4-bis((1S,2R)-2-phenylcyclopropyl)pyrrolidine-3,4-dicarboxamide] |
| 51 to 350 | – | CCCCCCCCCCCCCCC(=O)N[C@H]1CN(C(=O)c2ccc(C(=O)N3C[C@@H](C(=O)N[C@H]4C[C@@H]4c4ccccc4)[C@H](C(=O)N[C@H]4C[C@@H]4c4ccccc4)C3)cc2)C[C@@H]1O [Compound 078, (3S,4S)-1-(4-((3S,4S)-3-hydroxy-4-pentadecanamidopyrrolidine-1-carbonyl)benzoyl)-N3,N4-bis((1S,2R)-2-phenylcyclopropyl)pyrrolidine-3,4-dicarboxamide] |
| > 1000 | – | CCCCCCCCCCCCCCNC(=O)[C@@H]1CN(C(=O)c2ccc(C(=O)N3C[C@@H](C(=O)N[C@H]4C[C@@H]4c4ccccc4)[C@H](C(=O)N[C@H]4C[C@@H]4c4ccccc4)C3)cc2)CCN1C(=O)C(C)(C)C [Compound 251, (3S,4S)—N3,N4-bis((1S,2R)-2-phenylcyclopropyl)-1-(4-((S)-4-pivaloyl-3-(tetradecylcarbamoyl)piperazine-1-carbonyl)benzoyl)pyrrolidine-3,4-dicarboxamide] |
